# Patent US6642003B2, “Human glucose-dependent insulin-secreting cell line” (Cedars-Sinai Medical Center, priority 2001, dated 2003)
# Columns and labels:
# ARIP cells [1] = test: Immunofluorescence for IDX-1, ARIP cells; assay type: cell-based, rat
# Description: Cells were cultured on monocoated chamber slides (Nalge Nunc International; Naperville, Ill.) in the presence of GLP-1 (10 nM), or vehicle, for 72 h.
# For the detection of IDX-1, slightly different conditions were used. Briefly: the concentration of paraformaldehyde was decreased to 2%, and the concentration of Triton to permeabilize the cells was raised to 0.2% Triton-X-100. Cells were then washed with 0.01 M PBS three times for 3-5 min, and non-specific binding was inhibited by using 5% chick serum in 0.01 M PBS, at room temperature for 60 min in a humid chamber. A rabbit IDX-1 antibody directed against the N-terminus of the frog homologue of the IDX-1 gene was used as the primary antibody (1:500 diluted with 0.1% Triton-X 100, 1% BSA in 0.01 M PBS), and slides were incubated at 4° C. overnight in a humid chamber. After washing, cells were incubated with a fluorescein-conjugated goat anti-rabbit IgG antibody (Molecular Probes, Inc. Eugene, Oreg.) and incubated at room temperature for 1 hour in a humid chamber. Nuclei of cells stained with anti-IDX-1 antibody were visualized with Hoechst […] dye (Sigma, St. Louis, Mo.). The percentage of IDX-1 containing cells was evaluated by counting the number of IDX-1 “positive” cells divided by the total number of cells identified by nuclear staining.
# PANC-1 cells = test: Flow cytometric (FACS) analysis for insulin, parental PANC-1 cells; assay type: cell-based, human; details: presence or absence of GLP-1; equivalent to assay background
# Description: For fluorescence-activated cells sorting (FACS) analysis, cells were cultured in the presence of GLP-1 (10 nM), or vehicle, for 72 h, then washed with cold PBS (pH 7.4; three times) and incubated overnight, on ice, in PBS with 2% paraformaldehyde. After centrifugation, the cell pellet was resuspended in 400 μl of cold 0.1% Triton diluted in FACS buffer (PBS with 2% FCS). After several centrifugation and washes, the cells were resuspended in the assay buffer with of 10 μl of fluorescent-conjugated insulin antibody (Cat N. FM205, FITC: Chromaprobe, Inc; Mountain View, Calif.), in the presence of 10 μl of blocking antibody (anti-mouse IgG; Organon Teknika-Cappel, West Chester, Pa.). Control samples were treated with PBS, without the primary antibody, and then incubated with an […] FITC-conjugated control antibody (murine IgG; Chromaprobe Inc., Mountain View, Calif.). Flow cytometric analysis was performed with a FACScan[R] cytometer, using the LYSYS II program, and by fluorescence microscopy, as is well known in the art. See, e.g., E. Elstner, M. Linker-Israeli, J. Le, T. Umiel, P. Michl, J. W. Said, L. Binderup, J. C. […]
# ARIP cells [2] = test: Insulin release into culture medium (RIA), ARIP cells; assay type: cell-based, rat
# Description: (§1) Rat (ARIP) and human (PANC-1) ductal cell lines were respectively a gift from Dr. J. M. Egan (National Institute on Aging, Baltimore, Md.) or purchased from ATCC (American Type Culture Collection; Manassas, Va.). ARIP cells were cultured in F12 medium (Gibco-BRL, Gaithersburg; Md.) containing 100 μg/ml penicillin, 50 μg/ml streptomycin and 10% fetal calf serum (FCS; Gibco-BRL) at 37° C. under a humidified condition of 95% air and 5% CO2. PANC-1 cells were cultured in DMEM medium supplemented with antibiotics and FCS, as indicated for F12 medium. Treatment with human GLP-1 (H-6795, Bachem; King of Prussia, Pa.) was carried out using cells grown to 80% of confluence, after washing the cell layer with serum-free medium and a “wash-out” incubation for 6-h with serum free medium. To determine dose response to GLP-1, cells were cultured with fresh serum-free medium containing increasing concentration of GLP-1 (0.1, 1, 10, 20 nM), or vehicle alone. At the completion of the experiment, media and cells were collected. To determine the time course of response, cells were cultured in serum-free medium with GLP-1 (10 nM) for 0, 12, 24, 48, 72 or 96 h. Control dishes were cultured with vehicle alone, or with the peptide receptor antagonist of GLP-1, Exendin-9 (100 nM) for 72 h (gift Dr. J. M. Egan). The glucose concentration in the culture medium was 12 mM for both cell lines.
# (§2) PANC-1 (parental, IDX-1-transfected, and neomycin-transfected) cells and ARIP (only parental) cells were plated at density of 10^6 cells/well in a 6 well plate. Once the cells reached 80% of confluence, they were washed with serum-free medium containing 12 mM glucose and exposed to fresh serum-free medium for increasing length of time (0, 12, 24, 48, 72, 96 h) in the presence of various concentrations of GLP-1 (0.1, 1, 10, 20 nM) or vehicle. Glucose-dependent insulin secretion was evaluated by culturing the cells in the presence of a determined concentration of GLP-1 (10 nM for 72 h) with increasing concentration of glucose in the culture medium ([…]). Insulin released into the medium was measured by RIA (Linco Research Inc.; St. Charles, Mass.). Total insulin accumulation in the culture medium was then normalized for total cellular protein content per each Individual cultures.
# (§3) Total cellular protein content was measured by utilizing the Bradford method (Bio-Rad; Richmond, Calif.). The amount of proteins measured was used as a correction factor for determining the relative amount of medium to be assayed for each individual RIA for insulin.
# PANC-1/IDX-1 cells [3] = test: Insulin release into culture medium (RIA), PANC-1 cells transfected with human IDX-1; assay type: cell-based
# Description: as §1
# (§4) PANC-1 cells were transfected with a pcDNA3 construct (Invitrogen; Carlsbad, Calif.) harboring the wild-type full-length IDX-1 cDNA using LipoTAXI (Catalog N. 204110; Mammalian Transfection Kit, Stratagene; La Jolla, Calif.). Control cells were transfected with the vector alone. The selection of positive (i.e. transfected) cells was carried out by culturing the cells in the presence of 400 μg/ml of G418 sulfate (GN-04, Omega; Tarzana, Calif.).
# as §2, §3
# ARIP cells [4] = test: Morphological changes (hematoxylin and eosin), ARIP cells; assay type: cell-based, rat; details: GLP-1 10 nM for 72 h
# Text: (§5) Hematoxylin and eosin staining was employed, in some experiments, to show the morphological changes observed under the experimental conditions described below.
# PANC-1/IDX-1 cells [5] = test: Morphological changes (hematoxylin and eosin), PANC-1/IDX-1 cells; assay type: cell-based, human; details: GLP-1 10 nM for 72 h
# Description: as §4, §5
# [6] = GLP-1 10 nM for 72 h, increasing glucose
# [7] = serum-free medium, 12 mM glucose, 72 h
substance,measurement,setting,value
glucagon-like peptide-1 [GLP-1],effect on expression level of IDX-1,ARIP cells [1]; GLP-1 10 nM for 72 h,further increase
same,cells expressing IDX-1,"ARIP cells [1]; GLP-1 or vehicle, 400 cells counted",approximately 70%
same,cells containing insulin in the cytoplasm,PANC-1 cells,1.4%
same,lowest concentration of glucose required to induce the secretion of insulin,ARIP cells [2]; GLP-1 10 nM for 72 h,3 mM
same,glucose dependence of insulin release,ARIP cells [2]; [6],release insulin in a glucose-dependent manner
same,time of maximal insulin secretion,"ARIP cells [2]; GLP-1 10 nM, 12 mM glucose",48 h
same,time of plateau of insulin secretion,"ARIP cells [2]; GLP-1 10 nM, 12 mM glucose",72 h
same,GLP-1 concentration at plateau of insulin accumulation in the culture medium,ARIP cells [2]; [7],20 nM
same,minimum concentration of GLP-1 required to transform ARIP ductal cells into insulin producing cells,ARIP cells [2]; [7],1 nM
same,lowest concentration of glucose required to induce the secretion of insulin,PANC-1/IDX-1 cells [3]; GLP-1 10 nM for 72 h,3 mM
same,glucose dependence of insulin release,PANC-1/IDX-1 cells [3]; [6],release insulin in a glucose-dependent manner
same,time of peak insulin secretion,"PANC-1/IDX-1 cells [3]; GLP-1 10 nM, 12 mM glucose",≤ 48 h
same,time of plateau of insulin secretion,"PANC-1/IDX-1 cells [3]; GLP-1 10 nM, 12 mM glucose",72 h
same,concentration of GLP-1 required to induce insulin secretion,PANC-1/IDX-1 cells [3]; [7],1 nM
same,morphological change,ARIP cells [4],promoted the aggregation of cells in small clusters
same,morphological change: cell aggregation,PANC-1/IDX-1 cells [5],further promoted the tendency of forming few-cells aggregates
same,morphological change: cell size,PANC-1/IDX-1 cells [5],increase in the size of individual cells
